From the supplement of paper PMC11451515

Tested on: SEM cells
Assay: cell viability relative to DMSO control; higher = less cytotoxic
Details: 48 h
Method in brief: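 Viability, reported as a per-plate percentage of DMSO wells with cell-free wells as background, came from CellTiter-Glo One luminescence. Reading took place after 48 h at 37°C. Before that, NOMO1 or SEM (500 cells/well) or P12-Ichikawa (1000 cells/well) leukemia cells, adapted for at least four passages in each medium, were seeded in 1536-well plates (5 μl) and pin-dosed with library compounds in DMSO, 47 μM to 0.79 nM over 11 threefold points.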

[1] = HPLM + 10% dialyzed FBS, 0.000781 µM
[2] = HPLM + 10% dialyzed FBS, 0.00234 µM
[3] = HPLM + 10% dialyzed FBS, 0.00702 µM
[4] = HPLM + 10% dialyzed FBS, 0.0211 µM
[5] = HPLM + 10% dialyzed FBS, 0.0632 µM
[6] = HPLM + 10% dialyzed FBS, 0.19 µM
[7] = HPLM + 10% dialyzed FBS, 0.569 µM
[8] = HPLM + 10% dialyzed FBS, 1.71 µM
[9] = HPLM + 10% dialyzed FBS, 5.12 µM
[10] = HPLM + 10% dialyzed FBS, 15.4 µM
[11] = HPLM + 10% dialyzed FBS, 46.1 µM
[12] = RPMI 5 mM glucose + 10% FBS, 0.000781 µM
[13] = RPMI 5 mM glucose + 10% FBS, 0.00234 µM
[14] = RPMI 5 mM glucose + 10% FBS, 0.00702 µM
[15] = RPMI 5 mM glucose + 10% FBS, 0.0211 µM
[16] = RPMI 5 mM glucose + 10% FBS, 0.0632 µM
[17] = RPMI 5 mM glucose + 10% FBS, 0.19 µM
[18] = RPMI 5 mM glucose + 10% FBS, 0.569 µM
[19] = RPMI 5 mM glucose + 10% FBS, 1.71 µM
[20] = RPMI 5 mM glucose + 10% FBS, 5.12 µM
[21] = RPMI 5 mM glucose + 10% FBS, 15.4 µM
[22] = RPMI 5 mM glucose + 10% FBS, 46.1 µM
[23] = RPMI 5 mM glucose + 10% dialyzed FBS, 0.000781 µM
[24] = RPMI 5 mM glucose + 10% dialyzed FBS, 0.00234 µM
[25] = RPMI 5 mM glucose + 10% dialyzed FBS, 0.00702 µM
[26] = RPMI 5 mM glucose + 10% dialyzed FBS, 0.0211 µM
[27] = RPMI 5 mM glucose + 10% dialyzed FBS, 0.0632 µM
[28] = RPMI 5 mM glucose + 10% dialyzed FBS, 0.19 µM
[29] = RPMI 5 mM glucose + 10% dialyzed FBS, 0.569 µM
[30] = RPMI 5 mM glucose + 10% dialyzed FBS, 1.71 µM
[31] = RPMI 5 mM glucose + 10% dialyzed FBS, 5.12 µM
[32] = RPMI 5 mM glucose + 10% dialyzed FBS, 15.4 µM
[33] = RPMI 5 mM glucose + 10% dialyzed FBS, 46.1 µM

| Compound | cell viability [1] [%] | cell viability [2] [%] | cell viability [3] [%] | cell viability [4] [%] | cell viability [5] [%] | cell viability [6] [%] | cell viability [7] [%] | cell viability [8] [%] | cell viability [9] [%] | cell viability [10] [%] | cell viability [11] [%] | cell viability [12] [%] | cell viability [13] [%] | cell viability [14] [%] | cell viability [15] [%] | cell viability [16] [%] | cell viability [17] [%] | cell viability [18] [%] | cell viability [19] [%] | cell viability [20] [%] | cell viability [21] [%] | cell viability [22] [%] | cell viability [23] [%] | cell viability [24] [%] | cell viability [25] [%] | cell viability [26] [%] | cell viability [27] [%] | cell viability [28] [%] | cell viability [29] [%] | cell viability [30] [%] | cell viability [31] [%] | cell viability [32] [%] | cell viability [33] [%] |
| --- | --- | --- | --- | --- | --- | --- | --- | --- | --- | --- | --- | --- | --- | --- | --- | --- | --- | --- | --- | --- | --- | --- | --- | --- | --- | --- | --- | --- | --- | --- | --- | --- | --- |
| Cl.c1cnc2cc3c(cc2n1)C1CNCC3C1 | 98.5 | 102 | 104 | 104 | 118 | 113 | 114 | 122 | 108 | 113 | 119 | 98.7 | 94.4 | 91.3 | 105 | 111 | 117 | 111 | 105 | 97.7 | 110 | 120 | 101 | 93.4 | 111 | 121 | 122 | 126 | 115 | 135 | 113 | 111 | 103 |
| N[C@@H](C(=O)N[C@H]1[C@H]2SC\C(=C(/N2C1=O)C(O)=O)Cl)C3=CC=CC=C3 | 104 | 101 | 118 | 108 | 117 | 110 | 118 | 108 | 115 | 128 | 132 | – | – | – | – | – | – | – | – | – | – | – | 119 | 135 | 117 | 149 | 137 | 126 | 147 | 150 | 120 | 131 | 129 |
| COCCOC(=O)C/1=C(C)/NC/2=C(C1C3=CC=CC(=C3)O)/C(=O)CC(C2)C4=C(OC)C=CC=C4 (stereo unspecified) | 90.2 | 80.6 | 106 | 108 | 98.2 | 87.7 | 100 | 101 | 94.3 | 57 | 30.1 | 98.9 | 96.8 | 97.8 | 126 | 103 | 90.6 | 115 | 90.8 | 78.5 | 45.6 | 24.4 | 80.8 | 79.2 | 122 | 104 | 105 | 82.4 | 102 | 101 | 74.1 | 50.9 | 21.7 |
| CSC1=CC(=CC=C1)NC2=NC3=C(C=N2)/C=C(C(=O)N3C)/C4=C(Cl)C=CC=C4Cl | 86.5 | 90.7 | 97.7 | 77.3 | 86.4 | 89.7 | 97 | 99.4 | 88.9 | 77 | 55.2 | 120 | 110 | 110 | 53.5 | 105 | 97.4 | 126 | 120 | 112 | 91.4 | 81.3 | 96.1 | 89 | 91.9 | 80.1 | 96 | 78.3 | 103 | 84.9 | 84.3 | 69.4 | 52.4 |
| CC(C)OC(=O)CCC/C=C\C[C@@H]1[C@@H](/C=C/[C@@H](O)COc2cccc(C(F)(F)F)c2)[C@H](O)C[C@@H]1O | 65.4 | 124 | 115 | 118 | 118 | 118 | 121 | 122 | 106 | 102 | 31.7 | – | – | – | – | – | – | – | – | – | – | – | – | – | – | – | – | – | – | – | – | – | – |
| Cc1nc(Nc2ncc(C(=O)Nc3c(C)cccc3Cl)s2)cc(N2CCN(CCO)CC2)n1 | 88.1 | 106 | 93.3 | 98.3 | 91.7 | 92 | 80.2 | 81.9 | 54.9 | 34.9 | 29.9 | 66.6 | 68.9 | 64.9 | 78.4 | 68.2 | 66.1 | 74.7 | 69.9 | 60.1 | 17.5 | 14.8 | 100 | 102 | 106 | 99.6 | 104 | 99.9 | 88.3 | 79.2 | 50.3 | 26.4 | 25.2 |
| NC1CCC(N[C@@H]2C[C@H]2c2ccccc2)CC1 (stereo partly specified) | 75.5 | 90 | 87.5 | 87.5 | 92.9 | 92.8 | 93.7 | 76.4 | 83.2 | 82.3 | 81.5 | 120 | 126 | 114 | 115 | 119 | 124 | 146 | 106 | 111 | 105 | 98.9 | 84.2 | 98.5 | 99.8 | 96.7 | 98 | 96.3 | 106 | 81.9 | 92.4 | 81.4 | 74 |
| CCCCCCCCCCCC(CC1OC(=O)C1CCCCCC)OC(=O)C(CC(C)C)NC=O (stereo unspecified) | 86.9 | 82.3 | 96.1 | 99 | 92.8 | 98.8 | 91.4 | 98 | 83.2 | 65.1 | 10.1 | 82.2 | 86.8 | 96.6 | 86.6 | 86.9 | 91.2 | 79.9 | 76.2 | 48.2 | 24.9 | 6.99 | 86.9 | 90.5 | 101 | 82.1 | 105 | 99.4 | 108 | 87.6 | 64.8 | 38.1 | 7.62 |
